The nature of data set [1]: Pharmacokinetic test in rats after intragastric administration (LC/MS/MS of plasma). To be noted: SD rats, protocol 10.0 mg/kg; for Vd/F / AUC / CL/F / half-life / MRT / Cmax: both sexes, Sprague-Dawley, rat, plasma, po; for Vd/F: read-out: Apparent Distribution Volume Vz/F; for AUC: read-out: Area Under Curve AUC; for CL/F: read-out: Clearance CL/F; for half-life: read-out: Half life t1/2 (converted); for MRT: read-out: Mean Residence Time MRT; for Cmax: read-out: Plasma Conc. Cmax. Type of data set: in vivo, Sprague-Dawley (SD) rats. The method, then: Rats were used as test animals. A LC/MS/MS method was used to determine drug concentration in plasma at different time points after the rats were administered the compounds of Examples 3, 22 and 28 intragastrically. The pharmacokinetic behavior of the compounds of the present invention was studied and evaluated in rats.
Eight healthy adult Sprague-Dawley (SD) rats, half male and half female, were divided into 2 groups with 4 rats in each group. The animals were purchased from SINO-BRITISH SIPPR/BK LAB. ANIMAL LTD., CO, Certificate No.: SCXK (Shanghai) 2008-0016.
A certain amount of test compounds was weighed. 1.0 mL of dimethyl sulfoxide was added to dissolve the compounds. Normal saline was added to prepare a 1.0 mg/mL solution. The concentration of DMSO was kept at 5%. […]
Compounds of Example 3, 22 and 28 were administered intragastrically to rats. Blood samples (0.1 mL) were taken from the orbital sinus before the administration, and at 0.5, 1.0, 2.0, 3.0, 4.0, 6.0, 8.0, 12.0, 24.0, and 36.0 hours after administration. The blood sample was placed in a heparinized tube, and then centrifuged for 10 minutes at 4° C., at 10000 rpm to separate blood plasma. The plasma samples were stored at −20° C. The rats were fed 2 hours after compound administration.
Content determination of the test compounds in rat plasma after intragastrically administering at different concentrations: 50 μL of rat plasma taken at various time points after administration were mixed with 50 μL of internal standard solution and 100 μL of methanol, and mixed for 3 minutes by a vortexer. The mixture was centrifuged for 10 minutes at 13,500 rpm. 10 μL of the supernatant were taken from the plasma sample and analyzed by LC-MS/MS.

Data set [2] concerns hepatocellular carcinoma cell lines HCCLM3, MHCC97-H, MHCC97-L, and stomach cancer cell lines SNU5, MKN-45. Nature of the data set: Growth inhibition of cancer cell lines (CellTiter-Glo, 72 hours). To be noted: read-out: Half inhibitory concentration (IC50), cell activity. A general note: In ATP-based viability assays light output follows the ATP content of the culture.
Description: The purpose is to measure the growth inhibition effect of the compound on hepatocellular carcinoma cell lines HCCLM3, MHCC97-H, MHCC97-L, and stomach cancer cell lines SNU5, MKN-45.
The positive control and the test compounds were firstly dissolved in 100% dimethyl sulfoxide to prepare a 20 mM stock solution, which was stored at −20° C. in a refrigerator. Before the experiment, the above stock solution was diluted with culture medium containing 0.6% dimethyl sulfoxide to prepare a 20× fold solution for each test concentration.
(1) To each well of 96-well plate was added 100 μl culture medium containing 2000 cells (HCCLM3/MHCC97-H/MHCC97-L was cultured in DMEM plus 10% FBS; SNU5 was cultured in IMDM plus 10% FBS; and MKN45 was cultured in RPMI1640 plus 10% GFBS). The plate was incubated in a 5% CO2 incubator overnight.
(2) 20 μl diluted positive control or test compounds were added to each well, with two duplicate wells for each dilution. To the blank well and the control well were each added 20 μl culture medium containing 0.6% dimethyl sulfoxide. […]
(5) BioTek microplate reader was used to measure the luminescence signal of each well.
(6) Using GraphPad software, a non-linear regression curve was generated based on the inhibition ratio as a function of the concentration of the compounds. The IC50 was calculated using a S-shaped dose-effect curve fitting.
A further data set deals with c-MET tyrosine kinase (Homo sapiens (Human), UniProt P08581). Nature of the data set: c-MET tyrosine kinase enzyme activity (inhibition of phosphorylation, fluorescence). To be noted: read-out: Half inhibitory concentration (IC50) on the receptor tyrosine kinase c-MET, enzyme activity.
c-MET tyrosine kinase, sequence (P08581 25-1390): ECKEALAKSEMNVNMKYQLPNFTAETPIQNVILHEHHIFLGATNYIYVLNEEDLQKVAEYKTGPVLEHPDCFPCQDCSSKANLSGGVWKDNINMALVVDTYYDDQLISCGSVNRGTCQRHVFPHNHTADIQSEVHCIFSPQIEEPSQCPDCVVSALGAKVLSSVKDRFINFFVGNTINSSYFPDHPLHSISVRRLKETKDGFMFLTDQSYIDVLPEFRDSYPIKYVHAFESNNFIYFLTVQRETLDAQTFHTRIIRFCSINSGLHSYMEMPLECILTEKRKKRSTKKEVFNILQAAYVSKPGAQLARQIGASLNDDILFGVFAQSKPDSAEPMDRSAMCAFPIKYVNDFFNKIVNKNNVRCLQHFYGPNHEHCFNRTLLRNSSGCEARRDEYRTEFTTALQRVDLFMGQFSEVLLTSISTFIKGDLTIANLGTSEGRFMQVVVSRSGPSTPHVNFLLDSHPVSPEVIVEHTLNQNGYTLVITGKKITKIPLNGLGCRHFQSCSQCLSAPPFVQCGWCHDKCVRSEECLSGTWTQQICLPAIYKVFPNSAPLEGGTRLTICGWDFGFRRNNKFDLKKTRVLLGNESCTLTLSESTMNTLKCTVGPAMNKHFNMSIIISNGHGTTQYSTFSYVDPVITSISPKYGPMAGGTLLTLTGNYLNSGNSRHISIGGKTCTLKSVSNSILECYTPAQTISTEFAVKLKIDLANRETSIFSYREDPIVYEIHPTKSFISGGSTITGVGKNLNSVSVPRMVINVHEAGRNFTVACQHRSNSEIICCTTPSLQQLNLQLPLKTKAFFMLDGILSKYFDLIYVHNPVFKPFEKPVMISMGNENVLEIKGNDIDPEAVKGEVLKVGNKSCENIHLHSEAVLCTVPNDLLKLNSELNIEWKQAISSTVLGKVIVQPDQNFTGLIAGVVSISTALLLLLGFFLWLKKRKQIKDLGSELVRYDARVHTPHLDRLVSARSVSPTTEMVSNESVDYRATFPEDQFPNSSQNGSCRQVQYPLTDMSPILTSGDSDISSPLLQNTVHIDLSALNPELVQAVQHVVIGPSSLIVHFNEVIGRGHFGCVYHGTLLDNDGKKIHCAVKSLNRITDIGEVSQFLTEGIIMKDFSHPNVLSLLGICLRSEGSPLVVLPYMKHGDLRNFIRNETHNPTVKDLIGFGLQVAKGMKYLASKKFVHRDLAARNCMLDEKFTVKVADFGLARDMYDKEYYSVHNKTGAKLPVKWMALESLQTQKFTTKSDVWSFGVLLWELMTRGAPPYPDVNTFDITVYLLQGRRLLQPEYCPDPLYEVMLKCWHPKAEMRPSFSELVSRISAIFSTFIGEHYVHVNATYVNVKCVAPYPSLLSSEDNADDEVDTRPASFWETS
For data set [3] the following is noted: cited from earlier work.

Description for c-MET tyrosine kinase: The average inhibition rate of kinase and IC50 values were determined by a NovoStar microplate reader (BMG Co., Germany).
The purpose is to study the effect of the compounds on c-MET tyrosine kinase activity at the molecular level. IC50 values were calculated from the data of the inhibition rates of the compounds on c-MET tyrosine kinase phosphorylation at various concentrations, thereby evaluating the compounds.
The positive control and the test compounds were first dissolved in 100% dimethyl sulfoxide to prepare a 20 mM stock solution, which was stored at −20° C. in a freezer.
Just before the experiment, the above stock solution was diluted to a final concentration of 4% in dimethyl sulfoxide.
According to the need of dilution ratio, endonuclease was diluted in display buffer B.
All of the compounds were diluted within a 96-well plate.
The plate was incubated at room temperature for 1 hour.
5 μL display buffer were added, and the plate was incubated at room temperature for another 1 hour.
Using GraphPad software, a non-linear regression curve was generated based on the inhibition ratio as a function of the concentration of the compounds. The IC50 was calculated using a S-shaped dose-effect curve fitting.

Regarding `Cn1cc(-c2cc(F)c3nnc(Sc4ccc5ncc6c(c5c4)OCCO6)n3c2)cn1` [Example 3, 9-((8-fluoro-6-(1-methyl-1H-pyrazol-4-yl)-[1,2,4]triazolo[4,3-a]pyridin-3-yl)thio)-2,3-dihydro-[1,4]dioxino[2,3-c]quinoline], in data set [1], the Vd/F is 0.667 ± 0.087 L/kg; the AUC (as a rule, concentration integrated over time) was 79.3 ± 40.7 µg·h/mL; the CL/F came out at 0.0798 ± 0.0456 L/h/kg; the half-life was 7.54 ± 4.56 h. For the same compound, in data set [1], the MRT (commonly the average time that molecules of a dose stay in the body) came out at 11.6 ± 5.8 h and the Cmax (in general, the peak of the concentration-time curve) stood at 5 ± 0.957 µg/mL.

`CN1C(=O)COc2c1cnc1ccc(Sc3nnc4c(OC(F)F)cc(-c5cnn(C)c5)cn34)cc21` [Example 13, 9-((8-(difluoromethoxy)-6-(1-methyl-1H-pyrazol-4-yl)-[1,2,4]triazolo[4,3-a]pyridin-3-yl)thio)-4-methyl-2H-[1,4]oxazino[3,2-c]quinolin-3(4H)-one]: the IC50 (in data set [2]; on c-MET tyrosine kinase) was more than 1000 nM each time.

Consider `CN1C(=O)COc2c1cnc1ccc(Sc3nnc4c(F)cc(-c5cnn(C)c5)cn34)cc21` [Example 22, 9-((8-fluoro-6-(1-methyl-1H-pyrazol-4-yl)-[1,2,4]triazolo[4,3-a]pyridin-3-yl)thio)-4-methyl-2H-[1,4]oxazino[3,2-c]quinolin-3(4H)-one], for which the IC50 in data set [2] was 2 nM. Also, in data set [1], the Vd/F came to 0.327 ± 0.037 L/kg, the AUC came out at 122 ± 13.9 µg·h/mL, the CL/F is 0.0412 ± 0.00426 L/h/kg and the half-life was 5.55 ± 0.78 h. Moreover, in data set [1], the MRT came to 9.1 ± 0.85 h and the Cmax was 8.63 ± 0.592 µg/mL. The IC50 on c-MET tyrosine kinase turned out to be 2.9 nM.

Consider `Cn1cc(-c2ccc3nnc(Sc4ccc5ncc(N6CCOCC6)c(F)c5c4)n3c2)cn1` [Example 28, 4-(4-fluoro-6-((6-(1-methyl-1H-pyrazol-4-yl)-[1,2,4]triazolo[4,3-a]pyridin-3-yl)thio)quinolin-3-yl)morpholine], for which, in data set [1], the Vd/F came out at 1.13 ± 0.79 L/kg, the AUC was determined as 30.9 ± 25.5 µg·h/mL, the CL/F worked out at 0.244 ± 0.144 L/h/kg and the half-life was 3.13 ± 0.54 h. Besides, in data set [1], the MRT is 5.17 ± 0.95 h and the Cmax was determined as 3.6 ± 1.82 µg/mL.

For `Cn1cc(-c2ccc3nnc(C(F)(F)c4ccc5ncccc5c4)n3n2)cn1` [JNJ-38877605, reference compound], the “outcome of clinical trials (toxicity)” value in data set [3] is listed as “discontinued in clinical trials due to renal toxicity”. Moreover, in data set [1], the “Apparent Distribution Volume Vz/F” value stood at 1.48 ± 0.613 L/kg, the “Area Under Curve AUC” value came out at 17.325 ± 9.505 µg·h/mL, the “Clearance CL/F” value came out at 0.349 ± 0.152 L/h/kg and the “Half life t1/2” value turned out to be 2.97 ± 0.25 h. For the same compound, in data set [1], the “Mean Residence Time MRT” value is recorded as 4.90 ± 0.62 h and the “Plasma Conc. Cmax” value came out at 2.373 ± 1.444 µg/mL.

Turning to `Cn1cc(-c2ccc3nnc(Sc4ccc5ncccc5c4)n3n2)cn1` [SNG-523], the “outcome of clinical trials (toxicity)” value in data set [3] is on record as “discontinued in clinical trials due to renal toxicity”.

The values above are taken from patent publication US9512121B2, “[1,2,4] triazol [4,3-A] pyridine derivative, preparation method therefor or medical application thereof” (Jiangsu Hansoh Pharmaceutical Co., Ltd., priority 2013, dated 2016).
